According to US9066938B2, “GPBP-1 inhibition and its therapeutic use” (Fibrostatin S.L., priority 2012, dated 2015):

Target: T1, human recombinant GPBP-1 (Homo sapiens, UniProt Q9Y5P4)
T1 construct: made in house; host or cells: Pichia pastoris
T1 sequence (Q9Y5P4 1-624): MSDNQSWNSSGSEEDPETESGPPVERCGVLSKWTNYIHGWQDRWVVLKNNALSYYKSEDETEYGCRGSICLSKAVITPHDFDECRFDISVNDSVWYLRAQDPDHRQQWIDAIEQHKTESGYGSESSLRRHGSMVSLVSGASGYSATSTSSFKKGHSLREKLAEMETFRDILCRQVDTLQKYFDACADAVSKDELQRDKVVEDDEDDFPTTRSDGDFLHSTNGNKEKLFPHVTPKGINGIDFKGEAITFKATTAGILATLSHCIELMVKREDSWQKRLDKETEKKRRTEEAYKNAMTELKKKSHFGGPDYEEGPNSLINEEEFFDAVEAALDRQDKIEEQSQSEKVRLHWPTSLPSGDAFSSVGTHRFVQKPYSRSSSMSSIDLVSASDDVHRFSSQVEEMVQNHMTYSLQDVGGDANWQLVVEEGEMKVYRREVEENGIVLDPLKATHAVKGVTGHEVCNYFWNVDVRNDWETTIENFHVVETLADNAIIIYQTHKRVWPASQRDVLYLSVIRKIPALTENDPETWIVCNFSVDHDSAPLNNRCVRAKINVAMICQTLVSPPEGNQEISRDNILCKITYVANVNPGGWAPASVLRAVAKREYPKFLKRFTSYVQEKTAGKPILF
Assay: not given
Conditions: Saus et al. 2008, 2010; cited from earlier work
In the case of “LATLSHCIELMVKR (SEQ ID NO: 8) [Q2, isolated peptide representing 260SHCIE264 and flanking regions of GPBP-1]”, the “inhibition of GPBP-1 kinase activity” value is given as “efficiently inhibits”.

Test system: CSC derived from a uterine cancer
Assay: Sensitivity of CSC derived from a uterine cancer
Type: cell-based
Conditions: data not shown
For `COc1ccc(-c2ccc(-c3ccc(OC)c(Cl)c3)c(C)c2)c(CCC(=O)O)c1` [T55], the “sensitivity of uterine cancer CSC to the compound” value was “highly sensitive”.

Test system: A549 cells
Assay: not given
Type: cell-based
Conditions: 50 μM
Description: FIG. 2. […] Cells were seeded in 96-well plates and treated with the indicated compound combinations. The cellular viability (cell number) was measured with alamarBlue® and arbitrary units of fluorescence after 36 h of treatment (vertical axis).
FIG. 7. […] A549 cells were seeded on 96-well culture plates and after 4 h were treated with the indicated concentrations of doxorubicin in absence or presence of T12 (50 μM) and/or CFTR-inhibitor-172 (25 μM). Cells were cultured for additional 36 h and cell viability assessed as in FIG. 2.
A549 human lung adenocarcinoma cancer cells (CLS Cell Lines Service) were used as an ex vivo model for the assessment of anti-tumor activity of specific compounds. Unless otherwise indicated A549 cells were cultured in DMEM: Ham's F12 medium supplemented with 2 mM L-glutamine and 10% fetal bovine serum. A549 cells resistant to doxorubicin (A549-DR) were obtained treating cells with 1 μM for 4 weeks. A549 cells were transfected with a plasmid that expresses GPBP-1 and further selected with G418 (Invitrogen) to obtain a cell line (A549-GPBP) that constitutively expresses GPBP-1.
Cytotoxicity assays were performed with alamarBlue® reagent (Invitrogen) according to manufacturer's instructions. A549 cells were seeded on 96-well culture plates (7,500 cells/well) and allowed to settle during 4 h. Then, cells were cultured with individual peptidomimetics at concentrations ranging from 0 to 50 μM, in presence of doxorubicin at concentrations ranging from 0 to 10 μM for 36 h. JLSM cells were harvested by treatment with 0.25% trypsin (Lonza) and plated on collagen I coated 96-well black culture plate (Perkin Elmer) at a density of 10.000 cells per cm^2. After 4 h settling, cells were treated with different peptidomimetics (with or without doxorubicin) for 36 h. Subsequently alamarBlue® reagent was added and incubation maintained for 3 h. Fluorescence was measured using 560EX nm/590EM nm filter settings with a SpectraMax GeminiXPS (Molecular Devices). Blank wells containing media were used to determine background fluorescence.
The activity shown for each compound in Table 1 is the factor by which doxorubicin LC50 is reduced by the compound at a 50-μM concentration in A549 cell cultures. […] The symbols −, −/+, +, ++, +++, ++++ in the third column are used to show relative activities of compounds in a simplified way.
With `CCOC(=O)CCc1cc(O)ccc1-c1ccc(-c2cccnc2)c(CO)c1` [13c] the “toxicity of the compound by itself in A549 cultures” value (“toxicity of the compound by itself” below) was “significantly toxic”. In the case of `CCCOc1ccc(-c2ccc(-c3cccc(C(F)(F)F)c3)c(C)c2)c(CCC(=O)O)c1` [24c], the “toxicity of the compound by itself” value is reported as “significantly toxic”. In the case of `CCCOc1ccc(-c2ccc(-c3cccc(C)c3)c(C)c2)c(CCC(=O)O)c1` [24a], the “toxicity of the compound by itself” value is reported as “significantly toxic”.

Same assay, conditions: CFTR-inhibitor-172 25 μM, T12 50 μM, 36 h
For `O=C(O)c1ccc(C=C2SC(=S)N(c3cccc(C(F)(F)F)c3)C2=O)cc1` [CFTR/ABCC7 inhibitor 172, 3-[(3-Trifluoromethyl)phenyl]-5-[(4-carboxyphenyl)methylene]-2-thioxo-4-thiazolidinone, reference compound], the “cell viability in cultures treated with T12 with or without doxorubicin” value was “significantly reduced cell viability”.

Same assay, conditions: compound at 10 μM, A549 cell cultures
For `CCOC(=O)CCc1cc(O)ccc1-c1ccc(-c2cccnc2)c(CO)c1` [13c], the “Activity as enhancer of doxorubicin-induced cell death, relative activity symbol” value (“Activity as enhancer … relative activity symbol” below) was “+”. With `CCCOc1ccc(-c2ccc(-c3cccc(C(F)(F)F)c3)c(C)c2)c(CCC(=O)O)c1` [24c] the “Activity as enhancer … relative activity symbol” value was “++”.

Same assay, conditions: compound at 25 μM, A549 cell cultures
With `COc1ccc(-c2ccc(-c3ccc(OC)c(Cl)c3)c(C)c2)c(CCC(=O)O)c1` [T55] the “Activity as enhancer … relative activity symbol” value was “++++”. With `CCCOc1ccc(-c2ccc(-c3cccc(C)c3)c(C)c2)c(CCC(=O)O)c1` [24a] the “Activity as enhancer … relative activity symbol” value was “++”.

Same assay, conditions: compound at 50 μM, A549 cell cultures
For `COc1ccc(-c2ccc(-c3ccc(OC)c(C)c3)c(C)c2)c(CCC(=O)O)c1`, the “Activity as enhancer … relative activity symbol” value was “++++”. With `Cc1cc(-c2ccc(O)cc2CCC(=O)O)ccc1-c1cccc(C(F)(F)F)c1` the “Activity as enhancer … relative activity symbol” value was “+”. In the case of `O=C(O)CCc1cc(O)ccc1-c1ccc(-c2cccc(C(F)(F)F)c2)c(CF)c1`, the “Activity as enhancer … relative activity symbol” value is reported as “++++”. In the case of `Cc1cccc(-c2ccc(-c3ccc(O)cc3CCO)cc2CCC(=O)O)c1`, the “Activity as enhancer … relative activity symbol” value is reported as “+”. In the case of `CCCCCCCCCCCCCCCC(=O)Oc1ccc(-c2ccc(-c3cccc(C)c3)c(C)c2)c(CCC(=O)O)c1`, the “Activity as enhancer … relative activity symbol” value is reported as “−”. For `C[n+]1cccc(-c2ccc(-c3ccc(O)cc3CCC(=O)[O-])cc2CO)c1`, the “Activity as enhancer … relative activity symbol” value was “−”. In the case of `Cc1cccc(-c2ccc(-c3ccc(O)cc3CCC(=O)O)cc2C(F)F)c1`, the “Activity as enhancer … relative activity symbol” value is reported as “++”. With `Cc1cccc(-c2ccc(-c3ccc(O)cc3C(C)C)cc2CCC(=O)O)c1` the “Activity as enhancer … relative activity symbol” value was “+”. With `O=C(O)CCc1cc(O)ccc1-c1ccc(-c2cccnc2)c(CO)c1` the “Activity as enhancer … relative activity symbol” value was “+”. For `CCOC(=O)CCc1cc(O)ccc1-c1ccc(-c2cccc(C(F)(F)F)c2)c(C)c1`, the “Activity as enhancer … relative activity symbol” value was “−?”. For `Cc1cccc(-c2ccc(-c3ccc(OCC(=O)O)cc3CCC(=O)O)cc2C)c1`, the “Activity as enhancer … relative activity symbol” value was “−”. For `Cc1cccc(-c2ccc(-c3ccc(O)cc3CCC(=O)O)cc2C)c1`, the “Activity as enhancer … relative activity symbol” value was “++”. For `COc1ccc(-c2ccc(-c3cccnc3)c(C)c2)c(CCC(=O)O)c1`, the “Activity as enhancer … relative activity symbol” value was “++++”. For `O=C(O)CCc1cc(O)ccc1-c1ccc(-c2cccc(C(F)(F)F)c2)c(C(F)F)c1`, the “Activity as enhancer … relative activity symbol” value was “++”. For `COc1ccc(-c2ccc(-c3cccc(C)c3)c(CO)c2)c(CCC(=O)O)c1`, the “Activity as enhancer … relative activity symbol” value was “−/+”. In the case of `COc1ccc(-c2ccc(-c3cccc(C(F)(F)F)c3)c(CO)c2)c(CCC(=O)O)c1`, the “Activity as enhancer … relative activity symbol” value is reported as “+”. For `O=C(O)CCc1cc(O)ccc1-c1ccc(-c2cccnc2)c(C(F)F)c1`, the “Activity as enhancer … relative activity symbol” value was “+”. With `O=C(O)CCc1cc(O)ccc1-c1ccc(-c2cccc(C(F)(F)F)c2)c(CO)c1` the “Activity as enhancer … relative activity symbol” value was “−”. With `Cc1cccc(-c2ccc(-c3ccc(O)cc3CCC(=O)O)cc2CF)c1` the “Activity as enhancer … relative activity symbol” value was “++”. With `COc1ccc(-c2ccc(-c3cccc(C(F)(F)F)c3)c(C)c2)c(CCC(=O)O)c1` the “Activity as enhancer … relative activity symbol” value was “+++”. In the case of `COc1ccc(-c2ccc(-c3cccnc3)c(CF)c2)c(CCC(=O)O)c1`, the “Activity as enhancer … relative activity symbol” value is reported as “+++”. For `Cc1cccc(-c2ccc(-c3ccc(O)cc3CCC(=O)O)cc2CO)c1`, the “Activity as enhancer … relative activity symbol” value was “−/+”. With `O=C(O)CCc1cc(O)ccc1-c1ccc(-c2cccnc2)c(CF)c1` the “Activity as enhancer … relative activity symbol” value was “+”. In the case of `COc1ccc(-c2ccc(-c3cccnc3)c(CO)c2)c(CCC(=O)O)c1`, the “Activity as enhancer … relative activity symbol” value is reported as “−”.
